Measurements published in US20050245508A1, “Treatment of malignant gliomas with TGF-beta inhibitors” (SCIOS, Inc., priority 2003, published 2005).

Key:
LN-308 glioma cells [1] = assay: Flow cytometric cell cycle analysis; assay type: cell-based, human; conditions: 0.01, 0.1 or 1 μM, 48 h, data not shown
Protocol: The adherent glioma cells were detached nonenzymatically using cell dissociation solution (Sigma). Cell cycle analysis was performed by using fixed and permeabilized glioma cells (70% ethanol). RNA was digested with RNase A (Life Technologies, Inc.). DNA was stained with propidium iodide (50 μg/ml).

LN-308 glioma cells [2] = assay: Glioma cell growth, [methyl-3H]-thymidine incorporation; assay type: cell-based, human
Protocol: (§1) FIG. 2. Abrogation of autocrine TGF-β signaling in glioma cells by Compound No. 79. A. The cells were seeded at 10^4 cells/well in 96 well plates and cultured in the absence or presence of Compound No. 79 for 48 h in serum-free medium. Growth was assessed by [methyl-^3H]-thymidine incorporation at 48 h (*p<0.05, t-test). B. Lysates from untreated glioma cells or cells preexposed to Compound No. 79 (1 μM) for 24 h or exposed to TGF-b2 (5 ng/ml) for 1 h or both were assessed for the levels of p-Smad2 or total Smad2/3. Note that the antibodies were specific to p-Smad2 and total Smad 2 and 3, respectively.
(§2) The glioma cells and CCL64 cells were maintained in DMEM supplemented with 2 mM L-glutamine (Gibco Life Technologies, Paisley, UK), 10% FCS (Biochrom KG, Berlin, Germany) and penicillin (100 IU/ml)/streptomycin (100 μg/ml) (Gibco). Growth and viability of the glioma cells was examined by crystal violet, LDH release (Roche, Mannheim, Germany) and trypan blue dye exclusion assays. To assess clonogenicity, 500 SMA-560 cells were seeded into 6 well plates (9.4 cm^2). After formation of visible cell formations, colonies>20 cells were counted.

[3] = test system: HLA-mismatched PBL cocultured with LN-308 cells; assay: Cytokine release by immune effector cells, Elispot; assay type: cell-based, human; conditions: 1 μM
Protocol: FIG. 3. Modulation of allogeneic anti-glioma immune responses by Compound No. 79 involves TGF-β antagonism. A. The lytic activity against LN-308 targets of PBL (squares) or purified T cells (triangles) preincubated with irradiated LN-308 cells in the absence (open symbols) or presence (filled symbols) of Compound No. 79 (1 μM) was determined in ^51Cr release assays. B-D. PBL were cultured in the absence (left) or presence (right) of irradiated LN-308 cells for 5 days. The cultures contained Compound No. 79 (1 μM) (filled bars) or not (open bars). Subsequently these effector cells were cocultured for 24 h with fresh non-irradiated LN-308 cells in the absence of Compound No. 79. The release of IFN-γ (B), TNF-α (C) or IL-10 (D) was assessed by Elispot assay. Data are expressed as cytokine-producing cells per 5×10^5 effector cells (n=3, *p<0.05, **p<0.01, t-test, effect of Compound No. 79). […]
IL-10, TNF-α and IFN-γ release by immune effector cells was assessed by Elispot assay in a multiscreen-HA 96 well plate (Millipore, Eschborn, Germany), coated with corresponding anti-human capture antibodies (Becton Dickinson). […] Spots were counted on an Elispot reader system (AID, Straβberg, Germany). […]

Smad2 phosphorylation = assay: Immunoblot of p-Smad2 and total Smad2/3 in glioma cells; assay type: cell-based
Protocol: as §1
The levels of phosphorylated Smad2 (p-Smad2) protein levels were analyzed by immunoblot using 20 μg of protein per lane on a 12% acrylamide gel. After transfer to a PVDF membrane (Amersham, Braunschweig, Germany), the blots were blocked in PBS containing 5% skim milk and 0.05% Tween 20, and incubated overnight at 4° C. with p-Smad2 antibody (2 μg/ml). Visualization of protein bands was accomplished using horseradish peroxidase-coupled secondary antibody (Sigma) and enhanced chemiluminescence (Amersham). Total Smad2/3 levels were assessed using a specific Smad2/3 antibody (Becton-Dickinson).

LN-308 glioma cells [4] = assay: Cytotoxicity, LDH release and trypan blue dye exclusion; assay type: cell-based, human; conditions: up to 1 μM for 72 h
Protocol: as §2

**Q.** For `Fc1ccc(Cl)cc1-c1nc(Nc2ccncc2)c2nccnc2n1` [Compound No. 79], which cell cycle arrest (LN-308 glioma cells [1]) is on record?
**A.** no specific type of cell cycle arrest

**Q.** What about the proliferation (LN-308 glioma cells [2]; concentrations required to block TGF-β in the CCL64 bioassay, 48 h) of the same compound?
**A.** no effect

**Q.** What about the growth (LN-308 glioma cells [2]; higher concentrations of up to 1 μM, FIG. 2A) of the same compound?
**A.** moderately inhibited

**Q.** And the IFN-γ release ([3]; PBL primed in presence of LN-308 cells, FIG. 3B)?
**A.** restored the IFN-γ release to levels comparable to PBL pre-cultured in the absence of LN-308 cells

**Q.** And the IL-10 release ([3]; unstimulated and glioma cell-primed cultures, FIG. 3D)?
**A.** reduced

**Q.** What about the “total cellular Smad2/3 levels” value (Smad2 phosphorylation; 1 μM 24 h, FIG. 2B) of the same compound?
**A.** without altering

**Q.** What about the “Smad2 phosphorylation by endogenous or exogenous TGF-β” value (Smad2 phosphorylation; 1 μM 24 h preexposure, TGF-β2 5 ng/ml 1 h, FIG. 2B) of the same compound?
**A.** interfered with Smad2 phosphorylation

**Q.** And the “pSmad phosphorylation signal in untreated glioma cells” value (Smad2 phosphorylation; no exogenous TGF-β)?
**A.** abolished

**Q.** What about the cytotoxic effects (LN-308 glioma cells [4]) of the same compound?
**A.** neiter LDH release nor trypan blue dye exclusion assays revealed cytotoxic effects
